Assays:
[1] = system: central benzodiazepine receptors; assay: Central benzodiazepine receptor binding (test of Speth et al.); conditions: 1000 nM of the compound
Procedure, shortened: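 Values are percent inhibition of central benzodiazepine receptor binding at 1000 nM compound (initial single-point screen at 1.0E-09, 1.0E-07 and 1.0E-05 M). Speth et al. binding test; nonspecific binding defined with excess unlabelled ligand and subtracted from total.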

[2] = molecular target: T1, α1 subtype containing GABA-A receptors (Homo sapiens, UniProt P14867+P18507); assay: Two-electrode voltage clamp electrophysiology in Xenopus oocytes, potentiation of GABA EC20 response, α1; assay type: cell-based; conditions: 100 nM compound; for activation at 0.1 µM: read-out: Percentage of potentiation alpha1
T1 construct: expressed in transfected cells; host or cells: Xenopus laevis oocytes, cRNA injected
Procedure, shortened: (§1)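 Stage 5–6 Xenopus oocytes were injected with cRNA for human α subunit plus β3 and γ2L, then voltage-clamped at −80 mV under ND96 perfusion. Each received 60 μM GABA (EC20), a 1 μM chlordiazepoxide control, and then a single 100 nM compound application.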

[3] = molecular target: T2, α2 subtype containing GABA-A receptors (Homo sapiens, UniProt P18507+P47869); assay: Two-electrode voltage clamp electrophysiology in Xenopus oocytes, potentiation of GABA EC20 response, α2; assay type: cell-based; conditions: 100 nM compound; for activation at 0.1 µM: read-out: Percentage of potentiation alpha2
T2 construct: expressed in transfected cells; host or cells: Xenopus laevis oocytes, cRNA injected
Procedure, shortened: as §1

[4] = molecular target: T3, α3 subtype containing GABA-A receptors (Homo sapiens, UniProt P18507+P34903); assay: Two-electrode voltage clamp electrophysiology in Xenopus oocytes, potentiation of GABA EC20 response, α3; assay type: cell-based; conditions: 100 nM compound; for activation at 0.1 µM: read-out: Percentage of potentiation alpha3
T3 construct: expressed in transfected cells; host or cells: Xenopus laevis oocytes, cRNA injected
Protocol: (§2) Electrophysiology protocol: Oocytes were prepared from adult female Xenopus laevis frogs. cRNA encoding human α1, α2, α3, α5, β3 and γ2L GABAA receptor subunits was injected into the cytoplasm of stage 5 or 6 oocytes using the Robocyte Robot (Multi Channel Systems, Reutlingen, Germany). Two-electrode voltage clamp recordings were made in 96-well plates using the Robocyte Robot. Oocytes were impaled using recording heads with two glass electrodes containing 1.5 M potassium acetate and 0.5 M KCl and held at a membrane potential of −80 mV. Oocytes were continually perfused with a ND96 solution (96 mM NaCl, 2 mM KCl, 0.1 mM CaCl2, and 5 mM HEPES, pH 7.5) using a Gilson 222 XL Liquid Handler and Gilson Minipuls 3 Peristaltic Pump (Gilson Medical Electronics, Middleton, Wis., USA). The protocol consisted of three 20-s applications of GABA that gave a 20% of the maximum response (EC20: 60 μM) to allow for headroom to determine a baseline GABA response. To assess the potentiation, oocytes were first exposed to a single 1 μM chlordiazepoxide (CDP) as a potentiation standard. Oocytes with insufficient expression levels (currents below threshold) or insufficient γ2L subunit incorporation (judged by rapid desensitization upon GABA application, or by insufficient potentiation by CDP) were not included in analysis. Following this control application, a given oocyte was exposed to test compounds at 100 nM concentrations. Only one concentration of one compound was tested per oocyte. […] One skilled in the art will recognize that subtypes contribute to the effects of GABA-A modulators. Such that compounds favoring different subtypes can have different therapeutic effects. The magnitude of modulation, for example, partial modulators can influence the effects in vivo. “++” indicates a greater modulation that “+” so that at any given subtype “++” inducates a greater amount of modulation for that subtype. In some embodiments, modulation favoring alpha 1 relative to alpha2 and/or alpha 3 can have sedative hypnotic effects. In other embodiments, compounds with reduced selectivity of alpha 1 can express anxiolytic effects with less sedation. Compounds with selectivity for alpha 5 can have memory/cognition enhancing effects.

[5] = molecular target: T4, α5 subtype containing GABA-A receptors (Homo sapiens, UniProt P18507+P31644); assay: Two-electrode voltage clamp electrophysiology in Xenopus oocytes, potentiation of GABA EC20 response, α5; assay type: cell-based; conditions: 100 nM compound; for activation at 0.1 µM: read-out: Percentage of potentiation alpha5
T4 construct: expressed in transfected cells; host or cells: Xenopus laevis oocytes, cRNA injected
Protocol: as §2

[6] = system: Wistar rats; assay: Vogel conflict test; assay type: in vivo; conditions: rat, 60 min before test, 3 minute test
Protocol: Vogel Conflict Test Protocol: The Vogel conflict test is an animal model of anxiety described by Vogel et al. (1971). In this test, water deprived animals are placed in a cage with free access to a drinking bottle. Whenever the animal drinks, an electric shock is administered. Animals punished during drinking rapidly cease to drink. Anxiolytic drugs decrease the effect of punishment and increase the number of shocks accepted by the rats in this conflict situation. Male Wistar rats were used in these studies. Rats were deprived of water for approximately 48 hours and then placed individually into a transparent Plexiglas enclosure with a floor consisting of stainless steel bars spaced 1 cm apart. The back wall of the enclosure was made of opaque Plexiglas thereby concealing the observer from the experimental animal. In the center of the opposite wall, 5 cm above the floor, a metal water spout protruded into the cage and was connected to one pole of a shock generator. The other pole of the shock generator was connected to the metal grid floor. The rat is left to explore until it finds the water spout. Then, every time it drinks, it receives an electric shock (1.7 mA, 1 sec duration) 2 seconds after it starts drinking The number of punished drinks is counted during a 3 minute test. Ten rats are studied per treatment group. Clobazam (64 mg/kg) was used as the positive control. Compounds of the present invention, vehicle (45% hydroxypropyl beta-cyclodextrin) and clobazam were administered orally to all groups (n=10 […] per group) 60 minutes prior to behavioral testing. All data were analyzed using unpaired Student's t-tests. An effect was considered significance if p<0.05.

T3 sequence (P34903 29-492): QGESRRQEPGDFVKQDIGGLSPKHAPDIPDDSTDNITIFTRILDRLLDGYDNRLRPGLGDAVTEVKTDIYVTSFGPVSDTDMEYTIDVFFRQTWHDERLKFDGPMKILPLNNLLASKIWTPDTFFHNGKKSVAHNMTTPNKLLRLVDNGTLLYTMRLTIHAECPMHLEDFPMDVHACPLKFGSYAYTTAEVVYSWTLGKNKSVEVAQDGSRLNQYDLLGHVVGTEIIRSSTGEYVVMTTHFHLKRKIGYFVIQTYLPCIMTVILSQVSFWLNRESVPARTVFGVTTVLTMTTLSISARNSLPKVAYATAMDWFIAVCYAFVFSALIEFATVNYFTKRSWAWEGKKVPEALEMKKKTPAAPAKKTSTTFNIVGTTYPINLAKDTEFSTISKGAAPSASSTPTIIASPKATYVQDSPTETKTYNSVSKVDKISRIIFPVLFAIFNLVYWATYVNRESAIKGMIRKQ
T3 sequence (P28472 26-473 partner): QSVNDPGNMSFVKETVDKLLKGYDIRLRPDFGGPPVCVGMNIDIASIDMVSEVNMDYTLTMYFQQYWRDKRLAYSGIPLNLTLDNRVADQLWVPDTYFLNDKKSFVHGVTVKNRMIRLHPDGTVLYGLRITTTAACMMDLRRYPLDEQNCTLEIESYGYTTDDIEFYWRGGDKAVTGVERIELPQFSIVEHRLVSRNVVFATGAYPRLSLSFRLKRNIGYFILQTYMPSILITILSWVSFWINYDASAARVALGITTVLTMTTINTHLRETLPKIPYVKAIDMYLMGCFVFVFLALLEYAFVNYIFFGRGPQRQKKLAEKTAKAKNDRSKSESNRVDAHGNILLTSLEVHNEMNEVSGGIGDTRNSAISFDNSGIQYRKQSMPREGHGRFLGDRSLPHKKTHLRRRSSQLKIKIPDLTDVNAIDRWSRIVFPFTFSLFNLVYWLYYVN
T3 sequence (P18507 40-475): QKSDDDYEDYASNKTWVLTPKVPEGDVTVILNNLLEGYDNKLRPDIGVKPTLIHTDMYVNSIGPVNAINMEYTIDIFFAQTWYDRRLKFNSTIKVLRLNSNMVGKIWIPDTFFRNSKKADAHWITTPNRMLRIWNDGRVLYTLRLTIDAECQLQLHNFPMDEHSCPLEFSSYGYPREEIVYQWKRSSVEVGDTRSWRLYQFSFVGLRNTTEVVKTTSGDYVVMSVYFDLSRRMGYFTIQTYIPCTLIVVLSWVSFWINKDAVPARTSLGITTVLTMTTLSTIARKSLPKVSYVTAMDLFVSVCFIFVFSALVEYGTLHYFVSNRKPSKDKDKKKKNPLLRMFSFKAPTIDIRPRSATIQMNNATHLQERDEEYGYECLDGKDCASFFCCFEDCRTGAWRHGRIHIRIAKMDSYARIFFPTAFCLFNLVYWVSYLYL
T1 sequence (P14867 28-456): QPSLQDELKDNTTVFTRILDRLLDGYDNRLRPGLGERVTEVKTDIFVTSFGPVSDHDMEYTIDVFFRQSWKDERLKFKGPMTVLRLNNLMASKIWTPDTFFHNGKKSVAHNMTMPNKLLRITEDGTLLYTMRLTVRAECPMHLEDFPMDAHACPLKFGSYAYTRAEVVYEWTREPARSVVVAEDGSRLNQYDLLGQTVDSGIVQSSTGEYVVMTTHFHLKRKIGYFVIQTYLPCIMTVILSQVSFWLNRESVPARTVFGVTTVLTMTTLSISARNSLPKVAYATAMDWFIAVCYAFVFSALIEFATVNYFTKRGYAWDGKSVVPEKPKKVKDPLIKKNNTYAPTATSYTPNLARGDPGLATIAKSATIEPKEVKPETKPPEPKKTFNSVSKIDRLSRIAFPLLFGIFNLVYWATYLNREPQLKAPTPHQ
T1 sequence (P28472 26-473 partner): as the sequence (P28472 26-473 partner) above
T1 sequence (P18507 40-475): as the sequence (P18507 40-475) above
T4 sequence (P31644 32-462): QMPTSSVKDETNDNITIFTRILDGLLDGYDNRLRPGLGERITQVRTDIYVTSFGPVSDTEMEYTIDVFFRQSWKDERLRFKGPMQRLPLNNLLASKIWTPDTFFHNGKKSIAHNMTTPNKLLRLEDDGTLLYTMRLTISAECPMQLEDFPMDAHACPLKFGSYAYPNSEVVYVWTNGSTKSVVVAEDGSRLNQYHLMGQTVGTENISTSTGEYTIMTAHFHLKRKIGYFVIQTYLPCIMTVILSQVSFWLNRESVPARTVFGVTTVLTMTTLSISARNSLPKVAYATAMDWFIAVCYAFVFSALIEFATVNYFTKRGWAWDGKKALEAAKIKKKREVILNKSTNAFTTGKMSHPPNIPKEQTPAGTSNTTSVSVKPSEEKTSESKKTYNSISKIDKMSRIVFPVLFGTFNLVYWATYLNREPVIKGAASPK
T4 sequence (P28472 26-473 partner): as the sequence (P28472 26-473 partner) above
T4 sequence (P18507 40-475): as the sequence (P18507 40-475) above
T2 sequence (P47869 29-451): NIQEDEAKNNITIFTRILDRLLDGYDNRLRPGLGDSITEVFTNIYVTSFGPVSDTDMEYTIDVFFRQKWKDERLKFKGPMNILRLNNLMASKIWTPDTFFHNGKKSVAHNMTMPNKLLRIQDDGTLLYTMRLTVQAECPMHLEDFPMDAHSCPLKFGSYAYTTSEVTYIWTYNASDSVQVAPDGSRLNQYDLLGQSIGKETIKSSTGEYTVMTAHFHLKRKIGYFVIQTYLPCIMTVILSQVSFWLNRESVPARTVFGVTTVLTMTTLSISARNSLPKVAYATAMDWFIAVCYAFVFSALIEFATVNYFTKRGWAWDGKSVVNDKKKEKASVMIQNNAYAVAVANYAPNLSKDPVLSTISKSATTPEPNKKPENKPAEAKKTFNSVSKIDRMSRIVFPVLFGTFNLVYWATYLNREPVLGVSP
T2 sequence (P28472 26-473 partner): as the sequence (P28472 26-473 partner) above
T2 sequence (P18507 40-475): as the sequence (P18507 40-475) above

Structure (SMILES)	% Inhibition at 1000 nM for CBZD [1]	activation at 0.1 µM [2] [%]	activation at 0.1 µM [3] [%]	activation at 0.1 µM [4] [%]	activation at 0.1 µM [5] [%]	Number of Shocks Mean ± S.E.M. ([6]; 0.3 mg/kg PO)	Number of Shocks Mean ± S.E.M. ([6]; 1 mg/kg PO)	Number of Shocks Mean ± S.E.M. ([6]; 3 mg/kg PO)	Number of Shocks Mean ± S.E.M. ([6]; 10 mg/kg PO)	Percentage of potentiation alpha1 [2]	Percentage of potentiation alpha2 [3]	Percentage of potentiation alpha3 [4]	Percentage of potentiation alpha5 [5]
Cc1cc(Cl)nc(NCc2c(-c3ccc(Cl)cc3)nc3ccc(Cl)cn23)n1 [Compound 170, 4-chloro-N-((6-chloro-2-(4-chlorophenyl)imidazo[1,2-a]pyridin-3-yl)methyl)-6-methylpyrimidin-2-amine]	++ (percentage of inhibition of central BZD site binding is greater than 80% in the presence of 1000 nM of the compound)	10 to 50	10 to 50	10 to 50	-10 to 10	5.1 ± 0.9	5.6 ± 0.9	6.5 ± 1.0	–	–	–	–	–
Clc1ccc(-c2nc3ccccn3c2Cn2ccnn2)cc1 [Compound 40, 2-(4-Chloro-phenyl)-3-[1,2,3]triazol-1-ylmethyl-imidazo[1,2-a]pyridine]	++ (percentage of inhibition of central BZD site binding is greater than 80% in the presence of 1000 nM of the compound)	-10 to 10	10 to 50	–	–	–	2.4 ± 0.4	3.4 ± 0.7	4.4 ± 0.7	–	–	–	–
O=c1n(Cc2c(-c3ccc(Cl)cc3)nc3ccccn23)nc2ccccn12 [Compound 119, 2-((2-(4-chlorophenyl)imidazo[1,2-a]pyridin-3-yl)methyl)-[1,2,4]triazolo[4,3-a]pyridin-3(2H)-one]	++ (percentage of inhibition of central BZD site binding is greater than 80% in the presence of 1000 nM of the compound)	-10 to 10	10 to 50	-10 to 10	-10 to 10	–	–	–	–	–	–	–	–
Cc1ccc(-c2nc3ccc(C)cn3c2Cn2cnc3c(N(C)C)ncnc32)cc1 [Compound 17, N,N-Dimethyl-9-((6-methyl-2-p-tolylH-imidazo[1,2-a]pyridin-3-yl)methyl)-9H-purin-6-amine]	++ (percentage of inhibition of central BZD site binding is greater than 80% in the presence of 1000 nM of the compound)	–	–	–	–	–	–	–	–	+ (percentage of potentiation is greater than or equal to 10% but less than 50% in the presence of 100 nM of the compound)	+ (percentage of potentiation is greater than or equal to 10% but less than 50% in the presence of 100 nM of the compound)	0 (percentage of potentiation is between about 10% to about −10%)	0 (percentage of potentiation is between about 10% to about −10%)
Cc1ccc(-c2nc3ccc(C)cn3c2Cn2cnc3ncccc32)cc1 [Compound 15, 1-((6-Methyl-2-p-tolylH-imidazo[1,2-a]pyridin-3-yl)methyl)-1H-imidazo[4,5-b]pyridine]	++ (percentage of inhibition of central BZD site binding is greater than 80% in the presence of 1000 nM of the compound)	–	–	–	–	–	–	–	–	+ (percentage of potentiation is greater than or equal to 10% but less than 50% in the presence of 100 nM of the compound)	+ (percentage of potentiation is greater than or equal to 10% but less than 50% in the presence of 100 nM of the compound)	+ (percentage of potentiation is greater than or equal to 10% but less than 50% in the presence of 100 nM of the compound)	0 (percentage of potentiation is between about 10% to about −10%)
Fc1ccc2nc(-c3ccc(Cl)cc3)c(Cn3nnc4ccccc43)n2c1 [Compound 58, 1-((2-(4-chlorophenyl)-6-fluoroH-imidazo[1,2-a]pyridin-3-yl)methyl)-1H-benzo[d][1,2,3]triazole]	++ (percentage of inhibition of central BZD site binding is greater than 80% in the presence of 1000 nM of the compound)	–	–	–	–	–	–	–	–	+ (percentage of potentiation is greater than or equal to 10% but less than 50% in the presence of 100 nM of the compound)	+ (percentage of potentiation is greater than or equal to 10% but less than 50% in the presence of 100 nM of the compound)	0 (percentage of potentiation is between about 10% to about −10%)	0 (percentage of potentiation is between about 10% to about −10%)
O=C1C=C(N2CCC(O)C2)CN1Cc1c(-c2ccc(Cl)cc2)nc2ccccn12 (stereo not drawn) [Compound 240, 1-((2-(4-chlorophenyl)imidazo[1,2-a]pyridin-3-yl)methyl)-4-(3-hydroxypyrrolidin-1-yl)-1H-pyrrol-2(5H)-one]	++ (percentage of inhibition of central BZD site binding is greater than 80% in the presence of 1000 nM of the compound)	≥ 50	10 to 50	-10 to 10	-10 to 10	–	–	–	–	–	–	–	–

Source: patent publication US8497278B2, “Imidazo[1,2-a]pyridine compounds” (priority 2008, dated 2013)
